US20050197350A1, “Novel quinoline, tetrahydroquinazoline, and pyrimidine derivatives and methods of treatment related to the use thereof” (TAISHO PHARMACEUTICAL CO., LTD., priority 2003, published 2005)

Each compound was assayed on MCH receptors (assay: MCH receptor activity class (method not given)). Conditions: class 1-3 by percent of control at 10^-7 M or IC50.

Row | SMILES | class
1 | CN(C)c1nc(N[C@H]2CC[C@@H](NC(=O)c3cccc([N+](=O)[O-])c3)CC2)nc2c1CCCC2 [compound 480] | 1 (Class 1: The value of percent of control at 10^−7 M was less than 40% or the value of IC50 was less than 50 nM.)
2 | CN(C)c1nc(N[C@H]2CC[C@@H](NC(=O)Cc3ccccc3)CC2)nc2c1CCCC2 [compound 481] | 3 (Class 3 The value of percent of control at 10^−7 M was more than 60% or the value of IC50 was more than 200 nM.)
3 | CN(C)c1nc(N[C@H]2CC[C@@H](NC(=O)C3C[C@H]3c3ccccc3)CC2)nc2c1CCCC2 (stereo partly drawn) [compound 482, (2R)-N-(cis-4-{[4-(dimethylamino)-5,6,7,8-tetrahydroquinazolin-2-yl]amino}cyclohexyl)-2-phenylcyclopropanecarboxamide] | 2 (Class 2: The value of percent of control at 10^−7 M was from 40% to 60% or the value of IC′50 was from 50 nM to 200 nM.)
4 | CN(C)c1nc(N[C@H]2CC[C@@H](NC(=O)c3ccc4c(c3)OCO4)CC2)nc2c1CCCC2 [compound 483] | 3 (Class 3 The value of percent of control at 10^−7 M was more than 60% or the value of IC50 was more than 200 nM.)
5 | Cc1cccc(C(=O)N[C@H]2CC[C@@H](Nc3nc4c(c(N(C)C)n3)CCCC4)CC2)c1 [compound 486] | 1 (Class 1: The value of percent of control at 10^−7 M was less than 40% or the value of IC50 was less than 50 nM.)
6 | Cc1ccc(C(=O)N[C@H]2CC[C@@H](Nc3nc4c(c(N(C)C)n3)CCCC4)CC2)cc1 [compound 487] | 2 (Class 2: The value of percent of control at 10^−7 M was from 40% to 60% or the value of IC′50 was from 50 nM to 200 nM.)
7 | CN(C)c1nc(N[C@H]2CC[C@@H](NC(=O)c3cccs3)CC2)nc2c1CCCC2 [compound 488, N-(cis-4-{[4-(dimethylamino)-5,6,7,8-tetrahydroquinazolin-2-yl]amino}cyclohexyl)thiophene-2-carboxamide] | 3 (Class 3 The value of percent of control at 10^−7 M was more than 60% or the value of IC50 was more than 200 nM.)
8 | CN(C)c1nc(N[C@H]2CC[C@@H](NC(=O)Cc3cccs3)CC2)nc2c1CCCC2 [compound 489] | 3 (Class 3 The value of percent of control at 10^−7 M was more than 60% or the value of IC50 was more than 200 nM.)
9 | CN(C)c1nc(N[C@H]2CC[C@@H](NC(=O)c3cccc(OC(F)(F)F)c3)CC2)nc2c1CCCC2 [compound 490] | 2 (Class 2: The value of percent of control at 10^−7 M was from 40% to 60% or the value of IC′50 was from 50 nM to 200 nM.)
10 | CN(C)c1nc(NC2CCC(NC(=O)OCc3ccccc3)CC2)nc2c1CCCC2 (centres unmarked) [compound 491] | 3 (Class 3 The value of percent of control at 10^−7 M was more than 60% or the value of IC50 was more than 200 nM.)
11 | CN(C)c1nc(NC2CCC(NC(=O)OCc3ccc([N+](=O)[O-])cc3)CC2)nc2c1CCCC2 (centres unmarked) [compound 492] | 3 (Class 3 The value of percent of control at 10^−7 M was more than 60% or the value of IC50 was more than 200 nM.)
12 | Cc1cc(C(=O)N[C@H]2CC[C@@H](Nc3nc4c(c(N(C)C)n3)CCCC4)CC2)ccc1Br [compound 493] | 2 (Class 2: The value of percent of control at 10^−7 M was from 40% to 60% or the value of IC′50 was from 50 nM to 200 nM.)
13 | CN(C)c1nc(N[C@H]2CC[C@@H](NC(=O)c3cccc(I)c3)CC2)nc2c1CCCC2 [compound 494] | 1 (Class 1: The value of percent of control at 10^−7 M was less than 40% or the value of IC50 was less than 50 nM.)
14 | CN(C)c1nc(N[C@H]2CC[C@@H](NC(=O)c3cccc(Cl)c3F)CC2)nc2c1CCCC2 [compound 495] | 3 (Class 3 The value of percent of control at 10^−7 M was more than 60% or the value of IC50 was more than 200 nM.)
15 | Cc1ccc(C(=O)N[C@H]2CC[C@@H](Nc3nc4c(c(N(C)C)n3)CCCC4)CC2)c(F)c1F [compound 496] | 3 (Class 3 The value of percent of control at 10^−7 M was more than 60% or the value of IC50 was more than 200 nM.)
16 | CN(C)c1nc(N[C@H]2CC[C@@H](NC(=O)c3ccc(F)cc3Cl)CC2)nc2c1CCCC2 [compound 497] | 2 (Class 2: The value of percent of control at 10^−7 M was from 40% to 60% or the value of IC′50 was from 50 nM to 200 nM.)
17 | CN(C)c1nc(N[C@H]2CC[C@@H](NC(=O)c3ccc(F)c(Cl)c3F)CC2)nc2c1CCCC2 [compound 498] | 3 (Class 3 The value of percent of control at 10^−7 M was more than 60% or the value of IC50 was more than 200 nM.)
18 | CN(C)c1nc(N[C@H]2CC[C@@H](NC(=O)CSc3ccccc3)CC2)nc2c1CCCC2 [compound 499] | 3 (Class 3 The value of percent of control at 10^−7 M was more than 60% or the value of IC50 was more than 200 nM.)
19 | CN(C)c1nc(N[C@H]2CC[C@@H](NC(=O)c3cccc(C(F)(F)F)c3F)CC2)nc2c1CCCC2 [compound 500] | 3 (Class 3 The value of percent of control at 10^−7 M was more than 60% or the value of IC50 was more than 200 nM.)
20 | CN(C)c1nc(N[C@H]2CC[C@@H](NC(=O)c3cc(C(F)(F)F)ccc3F)CC2)nc2c1CCCC2 [compound 501] | 3 (Class 3 The value of percent of control at 10^−7 M was more than 60% or the value of IC50 was more than 200 nM.)
21 | COc1cccc(CC(=O)N[C@H]2CC[C@@H](Nc3nc4c(c(N(C)C)n3)CCCC4)CC2)c1 [compound 503] | 2 (Class 2: The value of percent of control at 10^−7 M was from 40% to 60% or the value of IC′50 was from 50 nM to 200 nM.)

Row | SMILES | class
22 | CN(C)c1nc(N[C@H]2CC[C@@H](NC(=O)Cc3ccc(F)cc3)CC2)nc2c1CCCC2 [compound 504] | 1 (Class 1: The value of percent of control at 10^−7 M was less than 40% or the value of IC50 was less than 50 nM.)
23 | COc1ccc(CC(=O)N[C@H]2CC[C@@H](Nc3nc4c(c(N(C)C)n3)CCCC4)CC2)cc1 [compound 505] | 2 (Class 2: The value of percent of control at 10^−7 M was from 40% to 60% or the value of IC′50 was from 50 nM to 200 nM.)
24 | Cc1cc(C(=O)N[C@H]2CC[C@@H](Nc3nc4c(c(N(C)C)n3)CCCC4)CC2)c(C(F)(F)F)o1 [compound 506] | 2 (Class 2: The value of percent of control at 10^−7 M was from 40% to 60% or the value of IC′50 was from 50 nM to 200 nM.)
25 | Cc1cc(C(=O)N[C@H]2CC[C@@H](Nc3nc4c(c(N(C)C)n3)CCCC4)CC2)c(C)o1 [compound 507] | 1 (Class 1: The value of percent of control at 10^−7 M was less than 40% or the value of IC50 was less than 50 nM.)
26 | CCOc1ccccc1C(=O)N[C@H]1CC[C@@H](Nc2nc3c(c(N(C)C)n2)CCCC3)CC1 [compound 508] | 3 (Class 3 The value of percent of control at 10^−7 M was more than 60% or the value of IC50 was more than 200 nM.)
27 | CN(C)c1nc(N[C@H]2CC[C@@H](NC(=O)c3ccc(F)c(Cl)c3)CC2)nc2c1CCCC2 [compound 509] | 1 (Class 1: The value of percent of control at 10^−7 M was less than 40% or the value of IC50 was less than 50 nM.)
28 | Cc1ccc(C(=O)N[C@H]2CC[C@@H](Nc3nc4c(c(N(C)C)n3)CCCC4)CC2)cc1F [compound 510] | 2 (Class 2: The value of percent of control at 10^−7 M was from 40% to 60% or the value of IC′50 was from 50 nM to 200 nM.)
29 | CN(C)c1nc(N[C@H]2CC[C@@H](NC(=O)CC3CCCC3)CC2)nc2c1CCCC2 [compound 511] | 3 (Class 3 The value of percent of control at 10^−7 M was more than 60% or the value of IC50 was more than 200 nM.)
30 | COc1cc(OC)cc(C(=O)N[C@H]2CC[C@@H](Nc3nc4c(c(N(C)C)n3)CCCC4)CC2)c1 [compound 512] | 1 (Class 1: The value of percent of control at 10^−7 M was less than 40% or the value of IC50 was less than 50 nM.)
31 | CN(C)c1nc(N[C@H]2CC[C@@H](NC(=O)c3ccc(C#N)cc3)CC2)nc2c1CCCC2 [compound 513] | 3 (Class 3 The value of percent of control at 10^−7 M was more than 60% or the value of IC50 was more than 200 nM.)
32 | CN(C)c1nc(N[C@H]2CC[C@@H](NC(=O)c3cc(C(F)(F)F)cc(C(F)(F)F)c3)CC2)nc2c1CCCC2 [compound 514] | 1 (Class 1: The value of percent of control at 10^−7 M was less than 40% or the value of IC50 was less than 50 nM.)
33 | CN(C)c1nc(N[C@H]2CC[C@@H](NC(=O)/C=C/c3ccc([N+](=O)[O-])cc3)CC2)nc2c1CCCC2 [compound 515] | 3 (Class 3 The value of percent of control at 10^−7 M was more than 60% or the value of IC50 was more than 200 nM.)
34 | CN(C)c1nc(N[C@H]2CC[C@@H](NC(=O)Cc3ccccc3Br)CC2)nc2c1CCCC2 [compound 516] | 3 (Class 3 The value of percent of control at 10^−7 M was more than 60% or the value of IC50 was more than 200 nM.)
35 | Cc1cc(C(=O)N[C@H]2CC[C@@H](Nc3nc4c(c(N(C)C)n3)CCCC4)CC2)ccc1F [compound 517] | 1 (Class 1: The value of percent of control at 10^−7 M was less than 40% or the value of IC50 was less than 50 nM.)
36 | CN(C)c1nc(N[C@H]2CC[C@@H](NC(=O)c3ccccc3SC(F)F)CC2)nc2c1CCCC2 [compound 518] | 3 (Class 3 The value of percent of control at 10^−7 M was more than 60% or the value of IC50 was more than 200 nM.)
37 | CN(C)c1nc(N[C@H]2CC[C@@H](NC(=O)c3cc(Cl)sc3Cl)CC2)nc2c1CCCC2 [compound 519, 2,5-dichloro-N-(cis-4-{[4-(dimethylamino)-5,6,7,8-tetrahydroquinazolin-2-yl]amino}cyclohexyl)thiophene-3-carboxamide] | 1 (Class 1: The value of percent of control at 10^−7 M was less than 40% or the value of IC50 was less than 50 nM.)
38 | CCCSc1ncccc1C(=O)N[C@H]1CC[C@@H](Nc2nc3c(c(N(C)C)n2)CCCC3)CC1 [compound 520] | 2 (Class 2: The value of percent of control at 10^−7 M was from 40% to 60% or the value of IC′50 was from 50 nM to 200 nM.)
39 | CN(C)c1nc(N[C@H]2CC[C@@H](NC(=O)c3cc(C(C)(C)C)nn3Cc3ccccc3)CC2)nc2c1CCCC2 [compound 521] | 2 (Class 2: The value of percent of control at 10^−7 M was from 40% to 60% or the value of IC′50 was from 50 nM to 200 nM.)
40 | CN(C)c1nc(N[C@H]2CC[C@@H](NC(=O)c3cc(C(C)(C)C)nn3C)CC2)nc2c1CCCC2 [compound 522] | 3 (Class 3 The value of percent of control at 10^−7 M was more than 60% or the value of IC50 was more than 200 nM.)
41 | C/C(=C\c1ccccc1)C(=O)N[C@H]1CC[C@@H](Nc2nc3c(c(N(C)C)n2)CCCC3)CC1 [compound 523] | 3 (Class 3 The value of percent of control at 10^−7 M was more than 60% or the value of IC50 was more than 200 nM.)
